# Activity calls are given as the source filed them. Cut-off read from the data, not from the text of the source, for most assays here: actives have a measured EC50 and inactives only a lower limit.
# Tests used:
# [1] = alpha-synuclein stem-loop luciferase translation blockers – H4 neuroglioma cells, luminescence, confirmation (AID 1988); assay type: functional, cell-based
# [2] = Luminescence Cell-Based Dose Response HTS to Identify Inhibitors of 5'UTR Stem-Loop Driven Prion Protein mRNA Translation in H4 Neuroglioblastoma Cells. [Related pubchem assays: 1827 (Project Summary), 1813 (Primary HTS)]; assay type: functional
# [3] = molecular target: T1, Heat shock factor protein 1 (Mus musculus, UniProt P38532); assay: decrease of HSF1-responsive luciferase luminescence – cell-based, NIH3T3, dose retest, confirmation (AID 2382); assay type: functional;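 note: NIH3T3 fibroblasts with HSF1-driven luciferase reporter stressed by proteasome inhibitor MG132; luminescence from HSF1-driven luciferase expression after 8 hours of MG132 stress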
# T1 sequence (P38532 whole entry): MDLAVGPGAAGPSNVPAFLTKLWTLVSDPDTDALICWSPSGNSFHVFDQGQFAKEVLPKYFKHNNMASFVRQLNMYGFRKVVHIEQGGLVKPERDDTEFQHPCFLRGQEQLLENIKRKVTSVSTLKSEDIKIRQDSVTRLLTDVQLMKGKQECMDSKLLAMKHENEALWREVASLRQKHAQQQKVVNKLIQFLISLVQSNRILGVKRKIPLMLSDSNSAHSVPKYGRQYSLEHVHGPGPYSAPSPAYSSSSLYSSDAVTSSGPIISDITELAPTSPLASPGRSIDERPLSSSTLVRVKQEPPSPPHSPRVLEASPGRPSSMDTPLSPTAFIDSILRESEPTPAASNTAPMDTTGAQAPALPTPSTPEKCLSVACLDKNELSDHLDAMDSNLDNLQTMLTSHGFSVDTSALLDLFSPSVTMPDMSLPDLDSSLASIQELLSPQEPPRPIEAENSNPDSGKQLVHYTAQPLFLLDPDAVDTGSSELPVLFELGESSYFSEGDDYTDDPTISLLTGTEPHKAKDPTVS
# [4] = luciferase reporter signal suppression in cells – H4 neuroglioma cells, luminescence, dose response (AID 1990); assay type: functional, cell-based
# [5] = molecular target: T1, Heat shock factor protein 1; assay: enhancement of HSF1-driven luciferase signal – cell-based, NIH3T3, luminescence, dose retest, confirmation (AID 435004); assay type: functional;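 note: stress induced by proteasome inhibitor MG132 added 30 min after compound; luciferase reporter driven by HSF1 response element in NIH3T3 cells; actives raise luminescence as potentiators of the MG132 stress response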
# [6] = Luminescence Cell-Based Dose Confirmation HTS to Identify Inhibitors of Platelet Dense Granule Release. [Related pubchem assays: 1663 (Primary HTS), 1678 (Summary of Project)]; assay type: functional
# [7] = molecular target: Luciferin 4-monooxygenase (Photinus pyralis, UniProt P08659); assay: inhibition of purified Photinus pyralis luciferase – biochemical, luminescence, dose response (AID 1891)
# [8] = DRD fibroblast viability loss – cell-based, non-viral oncogenic, luminescence, dose response (AID 1934); assay type: functional; conditions: Homo sapiens
# BJ [9] = assay: BJ-TERT-LT-ST fibroblast viability loss – cell-based, RAS-independent, luminescence, dose response (AID 1935); assay type: functional; conditions: Homo sapiens;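 note: BJ fibroblasts immortalized with TERT plus LT and ST oncogenes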
# BJ [10] = assay: BJ-TERT fibroblast viability loss – cell-based, RAS-independent, luminescence, dose response (AID 1933); assay type: functional; conditions: Homo sapiens
# BJ [11] = assay: cells; assay type: functional, cell-based; conditions: Homo sapiens
# [12] = system: Streptococcus sp. 'group A'; assay: Streptococcus pyogenes SK(-)GAS viability under kanamycin – luminescence, BacTiterGlo, confirmation, counter-screen for streptokinase expression inhibitor project, dose response (AID 1900); assay type: functional, organism-based
# Streptokinase A = molecular target: T2, Streptokinase A (Streptococcus pyogenes serotype M1, UniProt P10520); assay: viability-normalized secreted streptokinase activity reduction – plasminogen activation absorbance, OD405, dose response (AID 1914); assay type: functional, Streptococcus pyogenes M1 GAS;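 note: secreted streptokinase activity via plasminogen activation per viability signal from cell pellet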
# T2 sequence (P10520 whole entry): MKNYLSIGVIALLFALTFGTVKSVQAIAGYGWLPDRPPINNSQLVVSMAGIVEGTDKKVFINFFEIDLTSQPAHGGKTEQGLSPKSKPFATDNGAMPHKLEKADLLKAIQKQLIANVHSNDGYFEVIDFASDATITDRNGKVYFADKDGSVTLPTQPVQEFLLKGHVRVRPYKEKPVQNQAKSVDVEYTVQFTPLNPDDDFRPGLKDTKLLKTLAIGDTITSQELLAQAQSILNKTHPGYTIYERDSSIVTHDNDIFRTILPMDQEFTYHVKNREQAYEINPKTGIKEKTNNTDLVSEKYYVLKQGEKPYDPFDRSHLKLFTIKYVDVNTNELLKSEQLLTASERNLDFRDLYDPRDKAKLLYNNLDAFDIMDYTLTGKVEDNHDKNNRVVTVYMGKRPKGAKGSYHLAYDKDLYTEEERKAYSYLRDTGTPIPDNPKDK
# Streptococcus = assay: GAS UMAA2166 growth inhibition – luminescence, BacTiterGlo, counter-screen for streptokinase expression inhibitor project, dose response (AID 1915); assay type: functional, organism-based;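 note: potency for reduction of bacterial viability or growth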
# [13] = molecular target: FAD-linked sulfhydryl oxidase ALR (Homo sapiens, UniProt P55789); assay: ALR-catalysed DTT oxidation blockers – biochemical, H2O2 detection, luminescence, cherry-pick, dose response (AID 493248)
# Cytochrome P450 2C9 = Cytochrome P450 2C9 (Homo sapiens, UniProt P11712)
# Cytochrome P450 3A4 = Cytochrome P450 3A4 (Homo sapiens, UniProt P08684);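 note: CYP3A4 tested as one member of a cytochrome P450 panel screen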
# [14] = NIH3T3 cell viability loss – ATP luminescence, mouse fibroblasts, counter-screen, dose response (AID 2010); assay type: functional, cell-based;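 note: cells exposed to compound for about 90 hours before reading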
# [15] = Trypanosoma cruzi growth suppression in host cells – NIH3T3 host cells, beta-gal luminescence, confirmation (AID 2044); assay type: functional, cell-based;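 note: intracellular parasites grown in NIH/3T3 mouse fibroblasts as host cells; luminescent beta-galactosidase reporter signal from transgenic T. cruzi replicating inside host cells; inhibitors lower the luminescence signal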
# [16] = Luminescence Cell-Based Dose Retest to Confirm Inhibitors of Cancer Stem Cells. [Related pubchem assays (depositor defined):AID2717, AID2721]; assay type: functional; conditions: Homo sapiens
# [17] = NIH-3T3 fibroblast cytotoxicity, dose response, cytotoxicity control, cell-based, fluorescence, Alamar Blue, secondary assay (AID 2327); assay type: functional;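 note: NIH-3T3 mouse fibroblasts cultured with fluconazole at 8 µg/mL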
# [18] = fluconazole-exposed Candida albicans growth modulators – fluorescence, retest, confirmation (AID 2467); assay type: functional, cell-based
# Vero = assay: cells; assay type: functional; conditions: Chlorocebus sabaeus
# H9c2 = assay: cells; assay type: functional, cell-based; conditions: Rattus norvegicus, H9c2, Myocardium;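 note: confirmatory concentration-response retest of ultra-high-throughput screening hits for modulation of myocardial damage; cell death induced by hydrogen peroxide oxidative stress; compound pretreatment for 60 min then peroxide exposure for 2 h; potency is for protecting the cells against peroxide damage rather than for killing them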
# INS1 = assay: INS-1E survival protection against cytokine death – cell-based, luminescence, retest, dose response (AID 449756); assay type: functional; conditions: Rattus norvegicus;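 note: cell death triggered by IL-1 beta plus TNF-alpha plus IFN-gamma mixture; protective hits raise ATP signal compared with cytokine alone wells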
# Luciferin 4-monooxygenase, sequence (P08659 whole entry): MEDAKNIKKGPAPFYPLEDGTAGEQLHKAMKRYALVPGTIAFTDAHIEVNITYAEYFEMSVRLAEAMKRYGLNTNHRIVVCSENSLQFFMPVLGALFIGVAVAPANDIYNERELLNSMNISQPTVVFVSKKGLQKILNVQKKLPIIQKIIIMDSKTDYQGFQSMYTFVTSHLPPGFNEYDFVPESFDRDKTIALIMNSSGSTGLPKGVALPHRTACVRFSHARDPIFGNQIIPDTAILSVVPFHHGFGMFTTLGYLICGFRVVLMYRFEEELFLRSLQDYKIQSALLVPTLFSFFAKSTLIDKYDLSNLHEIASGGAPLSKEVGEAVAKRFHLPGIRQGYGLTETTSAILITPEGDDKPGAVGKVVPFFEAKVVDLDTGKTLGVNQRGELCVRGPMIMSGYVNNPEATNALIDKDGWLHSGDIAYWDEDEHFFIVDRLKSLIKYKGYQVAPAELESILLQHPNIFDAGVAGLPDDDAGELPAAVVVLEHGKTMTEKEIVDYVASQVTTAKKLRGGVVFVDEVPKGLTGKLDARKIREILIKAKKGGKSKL
# Cytochrome P450 2C9, sequence (P11712 whole entry): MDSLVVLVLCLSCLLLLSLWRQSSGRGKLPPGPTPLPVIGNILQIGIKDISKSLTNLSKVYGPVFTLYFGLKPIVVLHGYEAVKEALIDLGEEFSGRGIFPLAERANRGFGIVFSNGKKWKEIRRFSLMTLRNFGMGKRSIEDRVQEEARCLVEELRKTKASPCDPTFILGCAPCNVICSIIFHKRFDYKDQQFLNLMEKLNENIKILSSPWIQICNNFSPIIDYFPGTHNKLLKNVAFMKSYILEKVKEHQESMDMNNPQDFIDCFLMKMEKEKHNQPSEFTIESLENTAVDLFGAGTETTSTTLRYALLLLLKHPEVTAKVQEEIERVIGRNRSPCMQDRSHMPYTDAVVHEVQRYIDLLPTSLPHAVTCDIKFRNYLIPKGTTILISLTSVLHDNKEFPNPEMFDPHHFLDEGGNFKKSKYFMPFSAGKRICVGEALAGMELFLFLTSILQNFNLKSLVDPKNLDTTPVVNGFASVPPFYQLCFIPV
# FAD-linked sulfhydryl oxidase ALR, sequence (P55789 whole entry): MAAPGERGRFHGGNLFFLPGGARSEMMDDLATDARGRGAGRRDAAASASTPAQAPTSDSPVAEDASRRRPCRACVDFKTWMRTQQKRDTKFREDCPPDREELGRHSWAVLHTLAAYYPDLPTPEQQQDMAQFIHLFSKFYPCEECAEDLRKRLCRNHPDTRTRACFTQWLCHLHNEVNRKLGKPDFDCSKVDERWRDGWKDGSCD
# Cytochrome P450 3A4, sequence (P08684 whole entry): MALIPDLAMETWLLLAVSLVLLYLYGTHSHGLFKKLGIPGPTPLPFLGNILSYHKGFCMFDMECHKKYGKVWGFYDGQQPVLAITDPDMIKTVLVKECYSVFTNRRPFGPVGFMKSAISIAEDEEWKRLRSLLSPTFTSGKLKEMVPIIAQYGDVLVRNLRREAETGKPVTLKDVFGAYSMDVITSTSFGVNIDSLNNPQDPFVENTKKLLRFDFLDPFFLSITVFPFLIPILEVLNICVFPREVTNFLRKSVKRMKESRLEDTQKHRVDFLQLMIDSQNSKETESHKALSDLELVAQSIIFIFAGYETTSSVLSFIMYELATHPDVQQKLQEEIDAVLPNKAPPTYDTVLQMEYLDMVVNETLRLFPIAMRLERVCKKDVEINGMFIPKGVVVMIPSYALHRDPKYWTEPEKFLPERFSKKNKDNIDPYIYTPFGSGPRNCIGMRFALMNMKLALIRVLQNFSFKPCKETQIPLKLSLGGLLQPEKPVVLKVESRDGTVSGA
structure (smiles),measurement,setting,value
Cc1cc(/C(O)=C(/C([S-])=Nc2ccccc2)[n+]2ccccc2)c(C)n1-c1ccccc1,EC50,[1],> 120 µM (not active)
same,EC50,[2],> 120 µM (not active)
same,EC50,[3],2.53 µM (active)
same,EC50,[4],> 120 µM (not active)
CCOC(=S)SCC(=O)N1CCc2cc(OC)c(OC)cc2C1C1C(=O)CC(C)(C)CC1=O (configuration not stated),EC50,[5],> 260 µM (inactive)
Cc1ccc(C(=O)O/N=C(\N)c2ccccc2)c(Cl)c1,EC50,[6],2.42 µM (active)
same,EC50,[3],< 0.16 µM (active)
same,EC50,[7],1.03 µM (active)
CCCCOc1ccc(NC(=O)C(=O)NCCC2=CCCCC2)cc1,EC50,[8],142 µM (active)
same,EC50,BJ [9],> 150 µM (inconclusive)
same,EC50,BJ [10],> 150 µM (not active)
same,EC50,BJ [11],> 150 µM (not active)
CCCc1ccc(-c2cc(N)[nH]n2)cc1,EC50,[12],30.9 µM (active)
same,EC50,Streptokinase A,> 150 µM (not active)
same,EC50,Streptococcus,> 150 µM (not active)
same,AC50,[13],11.3 µM (active)
CCCn1nc(C(=O)NNC(=O)c2cccc(S(=O)(=O)NC(C)C)c2)c2ccccc2c1=O,EC50,[6],> 112 µM (not active)
same,EC50,[7],> 112 µM (not active)
COC(=O)c1cn(NC(=O)C2CCC(C)CC2)c(=O)c2ccccc12 (configuration not stated),EC50,[5],> 260 µM (inactive)
O=C(Nc1cccc(NC(=O)c2cccnc2Cl)c1)c1ccco1,EC50,[6],16.6 µM (active)
same,EC50,[7],> 112 µM (not active)
COc1ccc(OC)c(Nc2nc(-c3cccc([N+](=O)[O-])c3)nc3ccccc23)c1,EC50,[1],69.3 µM (active)
same,EC50,[2],21.7 µM (active)
same,AC50,Cytochrome P450 2C9,0.355 µM (inconclusive)
same,AC50,Cytochrome P450 3A4,2.82 µM (inconclusive)
same,EC50,[4],> 120 µM (not active)
COCC(C)n1c(C)cc(C(=O)CN2C(=O)NC(Cc3c[nH]c4ccccc34)C2=O)c1C (configuration not stated),EC50,[6],> 112 µM (not active)
same,EC50,[7],> 112 µM (not active)
Cc1cc2ccccn2c1C(=O)c1cccc([N+](=O)[O-])c1,EC50,[8],> 150 µM (inconclusive)
same,EC50,BJ [9],> 150 µM (inconclusive)
same,EC50,BJ [10],> 150 µM (not active)
same,EC50,BJ [11],> 150 µM (not active)
Cc1cc2oc(=O)cc(CNc3ccccc3F)c2cc1O,EC50,[14],> 60 µM (not active)
same,EC50,[12],9.59 µM (active)
same,EC50,[15],1.81 µM (active)
same,EC50,Streptokinase A,51.2 µM (active)
same,EC50,Streptococcus,> 150 µM (not active)
Nc1cc(-c2ccc(OC(F)(F)F)cc2)nn1-c1ccc(Cl)c(Cl)c1,AC50,[16],4.74 µM (active)
same,EC50,[12],6.98 µM (active)
same,EC50,Streptokinase A,20 µM (inconclusive)
same,EC50,Streptococcus,11.6 µM (active)
Cc1nc2cc(Nc3ccncc3)ccc2s1,EC50,[6],> 112 µM (not active)
same,EC50,[7],> 112 µM (not active)
O=S(=O)(c1cc(Cl)ccc1Cl)N1CC2CCCN2c2ccc(C(F)(F)F)cc21 (configuration not stated),EC50,[5],> 260 µM (inactive)
COc1ccc(C2=CC(c3ccc(OC)c(OC)c3)c3c(c4ccccc4oc3=O)O2)cc1OC (configuration not stated),EC50,[8],17.3 µM (active)
same,EC50,BJ [9],27.7 µM (active)
same,EC50,[3],> 195 µM (not active)
same,EC50,BJ [10],5.11 µM (active)
same,EC50,BJ [11],51.8 µM (active)
O=C(Nc1ccc(OCc2ccccc2Cl)cc1)c1cccnc1,EC50,[1],0.485 µM (active)
same,EC50,[2],0.909 µM (active)
same,EC50,[17],> 150 µM (inactive)
same,EC50,[18],> 38 µM (not active)
same,EC50,[4],3.07 µM (active)
N#CC1=C(N)Oc2cc(N)ccc2C1c1cccc(F)c1 (configuration not stated),EC50,[8],16.5 µM (active)
same,EC50,BJ [9],14.2 µM (inconclusive)
same,EC50,BJ [10],10.8 µM (active)
same,EC50,BJ [11],34 µM (active)
CCc1ccc(N(C(=O)c2snc(C(N)=O)c2N)C(C(=O)NCCC(C)C)c2c[nH]c3ccccc23)cc1 (configuration not stated),EC50,[5],139 µM (active)
Cn1c(=O)c2c(nc(SCCN3CCOCC3)n2Cc2ccccc2Cl)n(C)c1=O,EC50,[6],> 112 µM (not active)
same,EC50,[7],> 112 µM (not active)
CC(C)OC(=O)c1c2nc3ccccc3nc2n2c1nc(O)c1ccccc12,EC50,[12],1.24 µM (active)
same,EC50,Streptokinase A,> 150 µM (not active)
same,EC50,Streptococcus,39.6 µM (active)
COC(=O)c1ccc(Cl)c(NC(=O)CSc2nnc(-c3ccncc3)o2)c1,EC50,[12],> 150 µM (not active)
same,EC50,Streptokinase A,> 150 µM (not active)
same,EC50,Streptococcus,> 150 µM (not active)
COc1ccc(C(=O)NC2CCN(C(S)=NCc3ccco3)CC2)cc1,EC50,[5],> 260 µM (inactive)
CN(C)CCOC1(Cc2ccc(F)cc2)CCC(C(C)(C)C)CC1 (configuration not stated),CC50,Vero,> 25 µM (active)
COc1ccc(OC(=O)N2C/C(=C/c3ccccc3)C(=O)/C(=C\c3ccccc3)C2)cc1,CC50,Vero,9.88 µM (active)
C=CCc1ccccc1OCC(=O)N/N=C/c1ccc(OC(C)=O)cc1OC(C)=O,EC50,[1],10.6 µM (active)
same,EC50,[2],14.6 µM (active)
same,IC50,H9c2,> 79 µM (inactive)
same,EC50,[4],12.3 µM (active)
Cc1ccc(-c2nc(N/N=C/c3cccnc3)c3ccccc3n2)cc1,EC50,[6],1.02 µM (active)
same,EC50,[7],0.798 µM (active)
same,AC50,INS1,6.77 µM (active)
COc1ccc(/N=C2/C(=N\c3ccc(OC)cc3)N(c3ccc(OC)cc3)C(=S)N2C(=O)c2ccc(OC)cc2)cc1,EC50,[5],> 260 µM (inactive)
CCn1cc(/C=N\NC(=O)c2ccc3c(c2)c(C)c(C)n3Cc2ccccc2)c(C)n1,EC50,[8],> 150 µM (not active)
same,EC50,BJ [9],> 150 µM (not active)
same,EC50,BJ [10],> 150 µM (not active)
same,EC50,BJ [11],> 150 µM (not active)
